The text below walks through data of US7560464B2, “Polycyclic pyrimidines as potassium ion channel modulators” (Icagen, Inc., priority 2004, dated 2009).

One experiment deals with hSK2 (Homo sapiens, UniProt Q9H2S1). Nature of the experiment: Assay for compound activity towards hSK channels (86Rb+ efflux). The experiment is classed as cell-based. Conditions: 86Rb+ efflux stimulated with calcium ionophore; drug 0.01 to 30 μM in EBSS; read-out: hSK2 Inhibitory Activity. How it is done: 20.1 Assay for Compound Activity Towards hSK Channels
Cells expressing small conductance, calcium activated potassium channels, such as SK-like channels were loaded with ^86Rb^+ by culture in media containing ^86RbCl. Following loading, the culture media was removed and the cells were washed in EBSS to remove residual traces of ^86Rb^+. Cells were preincubated with the drug (0.01 to 30 μM in EBSS) and then ^86Rb^+ efflux was stimulated by exposing cells to EBSS solution supplemented with a calcium ionophore, such as ionomycin, in the continued presence of the drug. After a suitable efflux period, the EBSS/ionophore solution was removed from the cells and the ^86Rb^+ content was determined by Cherenkov counting (Wallac Trilux). Cells were then lysed with a SDS solution and the ^86Rb^+ content of the lysate was determined. Percent ^86Rb^+ efflux was calculated according to the following equation: (^86Rb^+ content in EBSS/(^86Rb^+ content in EBSS+^86Rb^+ content of the lysate))×100 20.2 Results

The next experiment has as its target SK2 subtype channels (Rattus norvegicus, UniProt P70604). Conditions: patch clamp; cited from earlier work.
Experiment [1] concerns the target T1, recombinant human SK4 (hIK1 or hKCa4) channels (Homo sapiens, UniProt O15554+P0DP23).
T1 construct: host or cells: HEK 293
Conditions: applied to the inside of SK4 channel-expressing membrane patches; cited from earlier work.

For `COc1cnc(-c2ccccn2)nc1Nc1ccc(-c2cccs2)cn1` [(5-Methoxy-2-pyridin-2-yl-pyrimidin-4-yl)-(5-thiophen-2-yl-pyridin-2-yl)-amine], the IC50 at hSK2 is less than 100 nM.

Take `COc1cnc(-c2ccccn2)nc1Nc1ccc(F)cn1` [(5-Fluoro-pyridin-2-yl)-(5-methoxy-2-pyridin-2-yl-pyrimidin-4-yl)-amine]: the IC50 at hSK2 was 100 to 1000 nM.

For the molecule `COc1cnc(-c2ccccn2)nc1Nc1ccc(C(F)(F)F)cn1` [(5-Methoxy-2-pyridin-2-yl-pyrimidin-4-yl)-(5-trifluoromethyl-pyridin-2-yl)-amine], the IC50 at hSK2 was in the range of 5000 to 30000 nM.

Take `COc1cnc(-c2ccccn2)nc1Nc1ccc(Cl)cn1` [(5-Chloro-pyridin-2-yl)-(5-methoxy-2-pyridin-2-yl-pyrimidin-4-yl)-amine]: at hSK2, the IC50 lay within 100 to 1000 nM.

As for `COc1cnc(-c2ccccn2)nc1Nc1cc(C)ccn1` [(5-Methoxy-2-pyridin-2-yl-pyrimidin-4-yl)-(4-methyl-pyridin-2-yl)-amine], the IC50 on hSK2 is less than 100 nM.

Regarding `Nc1c2c(nc3ccccc13)CCCC2` [tacrine], the “block of SK2 channel currents” value at SK2 subtype channels is recorded as “block SK2 channel currents with micromolar affinity”.

In the case of `Cc1ccnc(Nc2nccc(-c3ccccn3)n2)c1` [(4-Methyl-pyridin-2-yl)-(4-pyridin-2-yl-pyrimidin-2-yl)-amine], the IC50 at hSK2 was less than 100 nM.

As to Barium, the “activation of SK4 channels” value in experiment [1] is “activated SK4 channels in a concentration-dependent manner”.

`COc1cnc(-c2ccccn2)nc1Nc1ccc(N)cn1` [N^2-(5-Methoxy-2-pyridin-2-yl-pyrimidin-4-yl)-pyridine-2,5-diamine]: the IC50 on hSK2 is less than 100 nM.

As for `c1ccc(Nc2nccc(-c3ccccn3)n2)nc1` [Pyridin-2-yl-(4-pyridin-2-yl-pyrimidin-2-yl)-amine], the IC50 on hSK2 is less than 100 nM.

For the molecule `COc1cnc(-c2ccccn2)nc1Nc1ccc(N2CCN(C)CC2)cn1` [(5-Methoxy-2-pyridin-2-yl-pyrimidin-4-yl)-[5-(4-methyl-piperazin-1-yl)-pyridin-2-yl]-amine], the IC50 on hSK2 fell in the range of 100 to 1000 nM.

For `NC(=O)N1c2ccccc2C=Cc2ccccc21` [carbamazepine], the “block of SK2 channel currents” value at SK2 subtype channels is reported as “block SK2 channel currents with micromolar affinity”.

With `COc1ccc(Nc2nc(-c3ccccn3)ncc2OC)nc1` [(5-Methoxy-pyridin-2-yl)-(5-methoxy-2-pyridin-2-yl-pyrimidin-4-yl)-amine], the IC50 at hSK2 is less than 100 nM.

Turning to `CN(C)CCC=C1c2ccccc2CCc2ccccc21` [amitriptyline], at SK2 subtype channels, the “block of SK2 channel currents” value is “block SK2 channel currents with micromolar affinity”.

For strontium, the “activation of SK4 channels” value in experiment [1] is given as “activated SK4 channels in a concentration-dependent manner”.

In the case of `Cc1cccc(-c2ccnc(Nc3ccccn3)n2)n1` [[4-(6-methyl-pyridin-2-yl)-pyrimidin-2-yl]-pyridin-2-yl-amine], the IC50 on hSK2 lay in the range of 1000 to 5000 nM.

`Clc1ccc(Nc2ccnc(-c3ccccn3)n2)nc1` [(5-Chloro-pyridin-2-yl)-(2-pyridin-2-yl-pyrimidin-4-yl)-amine]: the IC50 at hSK2 is 1000 to 5000 nM.

For iron, the “activation of SK4 channels” value in experiment [1] is given as “did not activate”.

`COc1cnc(-c2ccccn2)nc1Nc1ccc(N2CCCC2)cn1` [(5-Methoxy-2-pyridin-2-yl-pyrimidin-4-yl)-(5-pyrrolidin-1-yl-pyridin-2-yl)-amine]: at hSK2, the IC50 is less than 100 nM.

`FC(F)(F)c1ccc(Nc2cc(-c3ccccn3)nc(-c3ccccn3)n2)nc1` [(2,6-Di-pyridin-2-yl-pyrimidin-4-yl)-(5-trifluoromethyl-pyridin-2-yl)-amine]: the IC50 on hSK2 was 5000 to 30000 nM.

Consider `Clc1cc(-c2ccccn2)nc(-c2ccccn2)n1` [4-Chloro-2,6-di-pyridin-2-yl-pyrimidine], for which the IC50 on hSK2 fell in the range of 1000 to 5000 nM.

Consider `c1ccc(Nc2nc(-c3ccccn3)nc3ccccc23)nc1` [Pyridin-2-yl-(2-pyridin-2-yl-quinazolin-4-yl)-amine], for which the IC50 at hSK2 was 100 to 1000 nM.

Consider `c1ccc(Nc2cc(-c3ccccn3)nc(-c3ccccn3)n2)nc1` [(2,6-Di-pyridin-2-yl-pyrimidin-4-yl)-pyridin-2-yl-amine], for which the IC50 on hSK2 is 5000 to 30000 nM.

Consider `COc1cnc(-c2ccccn2)nc1Nc1ccc(N2CCCC2=O)cn1` [1-[6-(5-Methoxy-2-pyridin-2-yl-pyrimidin-4-ylamino)-pyridin-3-yl]-pyrrolidin-2-one], for which the IC50 at hSK2 was less than 100 nM.

For the molecule `COc1cnc(-c2ccccn2)nc1Nc1ccc(-c2ccsc2)cn1` [(5-Methoxy-2-pyridin-2-yl-pyrimidin-4-yl)-(5-thiophen-3-yl-pyridin-2-yl)-amine], the IC50 on hSK2 was less than 100 nM.

As to cobalt, in experiment [1], the “activation of SK4 channels” value is “did not activate”.

With `Cc1nc(-c2ccccn2)nc(Nc2ccc(C(F)(F)F)cn2)c1Cl` [(5-Chloro-6-methyl-2-pyridin-2-yl-pyrimidin-4-yl)-(5-trifluoromethyl-pyridin-2-yl)-amine], the IC50 at hSK2 fell in the range of 5000 to 30000 nM.

calcium: in experiment [1], the “activation of SK4 channels” value was “activated SK4 channels in a concentration-dependent manner”.

As to `COc1cnc(-c2ccccn2)nc1NNc1ccccn1` [N-(5-Methoxy-2-pyridin-2-yl-pyrimidin-4-yl)-N′-pyridin-2-yl-hydrazine], at hSK2, the IC50 lay within 5000 to 30000 nM.

On to `COc1cnc(-c2ccccn2)nc1Nc1ccc(-c2ccccc2)cn1` [(5-Methoxy-2-pyridin-2-yl-pyrimidin-4-yl)-(5-phenyl-pyridin-2-yl)-amine], for which the IC50 on hSK2 lay within 100 to 1000 nM.

As for `COc1cnc(-c2ccccn2)nc1Nc1ccc(-c2cccc(F)c2)cn1` [[5-(3-Fluoro-phenyl)-pyridin-2-yl]-(5-methoxy-2-pyridin-2-yl-pyrimidin-4-yl)-amine], the IC50 at hSK2 lay within 100 to 1000 nM.

For `Cc1cccc(-c2nccc(Nc3ccccn3)n2)n1` [[2-(6-methyl-pyridin-2-yl)-pyrimidin-4-yl]-pyridin-2-yl-amine], the IC50 at hSK2 lay within 1000 to 5000 nM.

On to `COc1cnc(-c2ccccn2)nc1Nc1ccccn1` [(5-Methoxy-2-pyridin-2-yl-pyrimidin-4-yl)-pyridin-2-yl-amine], for which the IC50 at hSK2 lay within 100 to 1000 nM.

On to `CN(c1ccccn1)c1nccc(-c2ccccn2)n1` [Methyl-pyridin-2-yl-(4-pyridin-2-yl-pyrimidin-2-yl)-amine], for which the IC50 on hSK2 was 5000 to 30000 nM.

For `c1ccc(Nc2nc(-c3ccccn3)c3ccccc3n2)nc1` [Pyridin-2-yl-(4-pyridin-2-yl-quinazolin-2-yl)-amine], the IC50 at hSK2 was 5000 to 30000 nM.

For the molecule `COc1cnc(-c2ccccn2)nc1Nc1ccc(N(C)C)cn1` [N^2-(5-Methoxy-2-pyridin-2-yl-pyrimidin-4-yl)-N5,N5-dimethyl-pyridine-2,5-diamine], the IC50 on hSK2 was in the range of 100 to 1000 nM.

As to `COc1cnc(-c2ccccn2)nc1Nc1ccc(N2CCC(C)CC2)cn1` [(5-Methoxy-2-pyridin-2-yl-pyrimidin-4-yl)-(4-methyl-3,4,5,6-tetrahydro-2H-[1,3′]bipyridinyl-6′-yl)-amine], the IC50 on hSK2 was less than 100 nM.

As for `Cc1cc(Nc2ccccn2)nc(-c2ccccn2)n1` [(6-methyl-2-pyridin-2-yl-pyrimidin-4-yl)-pyridin-2-yl-amine], on hSK2, the IC50 lay within 5000 to 30000 nM.

For `COc1cnc(-c2ccccn2)nc1Nc1ccc(-c2ccc(C)o2)cn1` [(5-Methoxy-2-pyridin-2-yl-pyrimidin-4-yl)-[5-(5-methyl-furan-2-yl)-pyridin-2-yl]-amine], at hSK2, the IC50 fell in the range of 100 to 1000 nM.

For `Clc1ccc(Nc2nccc(-c3ccccn3)n2)nc1` [(5-Chloro-pyridin-2-yl)-(4-pyridin-2-yl-pyrimidin-2-yl)-amine], the IC50 at hSK2 was 100 to 1000 nM.

As to `COc1cnc(-c2ccccn2)nc1Nc1ccc([N+](=O)[O-])cn1` [(5-Methoxy-2-pyridin-2-yl-pyrimidin-4-yl)-(5-nitro-pyridin-2-yl)-amine], on hSK2, the IC50 lay in the range of 5000 to 30000 nM.

For the molecule magnesium, the “activation of SK4 channels” value in experiment [1] is listed as “did not activate”.

In the case of zinc, the “activation of SK4 channels” value in experiment [1] was “did not activate”.

For the molecule `FC(F)(F)c1ccc(Nc2nccc(-c3ccccn3)n2)nc1` [(4-Pyridin-2-yl-pyrimidin-2-yl)-(5-trifluoromethyl-pyridin-2-yl)-amine], the IC50 at hSK2 lay within 5000 to 30000 nM.

For `c1ccc(-c2ccc(Nc3nccc(-c4ccccn4)n3)nc2)cc1` [(5-Phenyl-pyridin-2-yl)-(4-pyridin-2-yl-pyrimidin-2-yl)-amine], at hSK2, the IC50 is 100 to 1000 nM.

Regarding cadmium, in experiment [1], the “activation of SK4 channels” value is “activated SK4 channels in a concentration-dependent manner”.

Take lead: the “activation of SK4 channels” value in experiment [1] is “activated SK4 channels in a concentration-dependent manner”.

With `COc1cnc(-c2ccccn2)nc1Nc1ccc(Br)cn1` [(5-Bromo-pyridin-2-yl)-(5-methoxy-2-pyridin-2-yl-pyrimidin-4-yl)-amine], the IC50 on hSK2 is 5000 to 30000 nM.
